In patent US20230416329A1, “A PEPTIDE WITH DISULFIDE BONDS AND INHIBITORY ACTIVITY AGAINST SERINE PROTEASES, DERIVED HYBRID PEPTIDES THEREOF, AND USES THEREOF” (INSTITUTE OF MATERIA MEDICA , CHINESE ACADEMY OF MEDICAL …, priority 2020, published 2023):
pIC50, pKi: −log10 of the molar value. Where two headings read alike, the source gives them in different places. Bridge positions count the residues as written; N and C are the ends. Square brackets hold non-standard residues; d marks the D form. Peptide text beside a SMILES is read from it. Hyp = O=C(O)[C@@H]1C[C@@H](O)CN1; Nle = CCCC[C@H](N)C(=O)O

Biological target: T1, bovine trypsin (Bos taurus, UniProt P00760)
T1 sequence (P00760 24-246): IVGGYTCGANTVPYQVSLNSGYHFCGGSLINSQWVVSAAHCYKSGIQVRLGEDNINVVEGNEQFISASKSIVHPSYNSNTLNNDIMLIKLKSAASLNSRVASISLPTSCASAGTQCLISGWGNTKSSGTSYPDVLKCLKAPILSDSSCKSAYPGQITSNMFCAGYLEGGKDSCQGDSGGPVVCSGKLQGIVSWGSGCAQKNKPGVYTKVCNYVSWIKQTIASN
Assay: Trypsin inhibitory activity of peptides (BApNA hydrolysis, OD405; IC50, Ki, residual activity)
Format: biochemical
Summary of the method: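 Trypsin (50 nM final) preincubated with peptides at 37 °C in 50 mM Tris-HCl pH 7.8, 20 mM CaCl2; BApNA added (1.22 mM final), 260 min at 37 °C, then OD405 read. Residual activity from enzyme-only and substrate-only controls; IC50 fitted and converted to Ki via Ki=IC50/(1+S/Km), Km measured separately for BApNA.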

[1] = trypsin 50 nM, BApNA 1.22 mM, read-out: IC50
[2] = Ki=IC50/(1+S/Km), Km 0.33 mM, read-out: Ki

| Residual trypsin activity (peptide 0.000098 μM) | Residual trypsin activity (peptide 0.00098 μM) | Residual trypsin activity (peptide 0.0098 μM) | Residual trypsin activity (peptide 0.0488 μM) | Residual trypsin activity (peptide 0.098 μM) | Residual trypsin activity (peptide 0.98 μM) | Residual trypsin activity (peptide 9.76 μM) | pIC50 [1] | pKi [2] | Residual trypsin activity (peptide 97.56 μM) | SMILES | inhibitory activity against trypsin (in words) | further results |
| --- | --- | --- | --- | --- | --- | --- | --- | --- | --- | --- | --- | --- |
| 99.3 ± 5.3% | 104.3 ± 6.0% | 100.7 ± 5.0% | 27.3 ± 5.5% | 6.3 ± 0.4% | 0.4 ± 0.0% | 0.0 ± 0.0% | 7.52 | – | – | CC[C@H](C)[C@@H]1NC(=O)[C@@H]2CCCN2C(=O)[C@@H]2CCCN2C(=O)[C@H]([C@@H](C)CC)NC(=O)[C@H](CO)NC(=O)[C@H](CCCCN)NC(=O)[C@H]([C@@H](C)O)NC(=O)[C@@H](NC(=O)[C@@H](N)CCCNC(=N)N)CSSC[C@@H](C(=O)N[C@@H](Cc2ccccc2)C(=O)O)NC1=O [BT45] (H-RCTKSIPPICF-OH; disulfide 2-10; C-terminus assumed) | – | Residual trypsin activity (peptide 0.02439 μM): 67.4 ± 2.6%; Residual trypsin activity (peptide 0.0390 μM): 42.7 ± 2.9%; Residual trypsin activity (peptide 0.07317 μM): 10.8 ± 1.6% |
| – | – | – | – | – | – | – | 7.15 | 8.00 | – | CC[C@H](C)[C@@H]1NC(=O)[C@@H]2CCCN2C(=O)[C@@H]2CCCN2C(=O)[C@H]([C@@H](C)CC)NC(=O)[C@H](CO)NC(=O)[C@H](CCCCN)NC(=O)[C@H]([C@@H](C)O)NC(=O)[C@H](C)NC(=O)[C@H](CCCNC(=N)N)NC(=O)[C@@H]2C[C@@H](O)CN2C(=O)[C@@H](N)CSSC[C@@H](C(=O)N[C@@H](Cc2ccccc2)C(=O)O)NC1=O [BT46] (H-C[Hyp]RATKSIPPICF-OH; disulfide 1-12; C-terminus assumed) | excellent trypsin inhibitory activities | – |
| 103.0 ± 5.2% | 105.1 ± 3.6% | 107.9 ± 5.8% | 57.4 ± 1.1% | 5.6 ± 0.7% | 0.2 ± 0.0% | 0.0 ± 0.1% | 7.30 | 8.00 | 0.1 ± 0.0% | CC[C@H](C)[C@@H]1NC(=O)[C@@H]2CCCN2C(=O)[C@@H]2CCCN2C(=O)[C@H]([C@@H](C)CC)NC(=O)[C@H](CO)NC(=O)[C@H](CCCCN)NC(=O)[C@H]([C@@H](C)O)NC(=O)[C@H](CO)NC(=O)[C@H](CCCNC(=N)N)NC(=O)CNC(=O)[C@@H](N)CSSC[C@@H](C(=O)N[C@@H](Cc2ccccc2)C(=O)O)NC1=O [BT47] (H-CGRSTKSIPPICF-OH; disulfide 1-12; C-terminus assumed) | good inhibitory activities against trypsin | inhibitory activity against trypsin (in words) (listed as SEQ ID NO: 47): excellent trypsin inhibitory activities; Residual trypsin activity (peptide 0.0780 μM): 39.0 ± 3.8% |
| – | – | – | – | – | – | – | – | 7.40 | – | CC[C@H](C)[C@@H]1NC(=O)[C@@H]2CCCN2C(=O)[C@@H]2CCCN2C(=O)[C@H]([C@@H](C)CC)NC(=O)[C@H](CO)NC(=O)[C@H](CCCCN)NC(=O)[C@H]([C@@H](C)O)NC(=O)[C@H](CC(C)C)NC(=O)[C@H](CCCNC(=N)N)NC(=O)CNC(=O)[C@@H](N)CSSC[C@@H](C(=O)N[C@@H](Cc2ccccc2)C(=O)O)NC1=O [BT48] (H-CGRLTKSIPPICF-OH; disulfide 1-12; N-terminus and C-terminus assumed) | – | – |
| – | – | – | – | – | – | – | – | 6.96 | – | CC[C@H](C)[C@@H]1NC(=O)[C@H](CCCNC(=N)N)NC(=O)CNC(=O)[C@@H](N)CSSC[C@@H](C(=O)N[C@@H](Cc2ccccc2)C(=O)O)NC(=O)[C@H]([C@@H](C)CC)NC(=O)[C@@H]2CCCN2C(=O)[C@@H]2CCCN2C(=O)[C@H]([C@@H](C)CC)NC(=O)[C@H](CO)NC(=O)[C@H](CCCCN)NC(=O)[C@H]([C@@H](C)O)NC1=O [BT49] (H-CGRITKSIPPICF-OH; disulfide 1-12; C-terminus assumed) | excellent trypsin inhibitory activities | – |
| 106.1 ± 2.6% | 108.5 ± 1.0% | 105.0 ± 3.9% | 73.5 ± 1.6% | 22.6 ± 5.7% | 0.1 ± 0.0% | 0.0 ± 0.1% | 7.15 | 8.00 | 0.0 ± 0.1% | CCCC[C@@H]1NC(=O)[C@H](CCCNC(=N)N)NC(=O)CNC(=O)[C@@H](N)CSSC[C@@H](C(=O)N[C@@H](Cc2ccccc2)C(=O)O)NC(=O)[C@H]([C@@H](C)CC)NC(=O)[C@@H]2CCCN2C(=O)[C@@H]2CCCN2C(=O)[C@H]([C@@H](C)CC)NC(=O)[C@H](CO)NC(=O)[C@H](CCCCN)NC(=O)[C@H]([C@@H](C)O)NC1=O [BT50] (H-CGR[Nle]TKSIPPICF-OH; disulfide 1-12; C-terminus assumed) | good inhibitory activities against trypsin | inhibitory activity against trypsin (in words) (listed as SEQ ID NO: 50): excellent trypsin inhibitory activities; Residual trypsin activity (peptide 0.0780 μM): 48.9 ± 1.8% |
| – | – | – | – | – | – | – | – | 7.05 | – | CC[C@H](C)[C@@H]1NC(=O)[C@@H]2CCCN2C(=O)[C@@H]2CCCN2C(=O)[C@H]([C@@H](C)CC)NC(=O)[C@H](CO)NC(=O)[C@H](CCCCN)NC(=O)[C@H]([C@@H](C)O)NC(=O)[C@H](C(C)C)NC(=O)[C@H](CCCNC(=N)N)NC(=O)CNC(=O)[C@@H](N)CSSC[C@@H](C(=O)N[C@@H](Cc2ccccc2)C(=O)O)NC1=O [BT51] (H-CGRVTKSIPPICF-OH; disulfide 1-12) | excellent trypsin inhibitory activities | – |
| – | – | – | – | – | – | – | 6.89 | 7.52 | – | CC[C@H](C)[C@@H]1NC(=O)[C@@H]2CCCN2C(=O)[C@@H]2CCCN2C(=O)[C@H]([C@@H](C)CC)NC(=O)[C@H](CO)NC(=O)[C@H](CCCCN)NC(=O)[C@H]([C@@H](C)O)NC(=O)[C@H](Cc2ccccc2)NC(=O)[C@H](CCCNC(=N)N)NC(=O)CNC(=O)[C@@H](N)CSSC[C@@H](C(=O)N[C@@H](Cc2ccccc2)C(=O)O)NC1=O [BT52] (H-CGRFTKSIPPICF-OH; disulfide 1-12; N-terminus and C-terminus assumed) | – | – |

| SMILES | Residual trypsin activity (peptide 0.000098 μM) | Residual trypsin activity (peptide 0.00098 μM) | Residual trypsin activity (peptide 0.0098 μM) | Residual trypsin activity (peptide 0.0488 μM) | Residual trypsin activity (peptide 0.098 μM) | Residual trypsin activity (peptide 0.98 μM) | Residual trypsin activity (peptide 9.76 μM) | pIC50 [1] | pKi [2] | Residual trypsin activity (peptide 97.56 μM) | inhibitory activity against trypsin (in words) | further results |
| --- | --- | --- | --- | --- | --- | --- | --- | --- | --- | --- | --- | --- |
| CC[C@H](C)[C@@H]1NC(=O)[C@@H]2CCCN2C(=O)[C@@H]2CCCN2C(=O)[C@H]([C@@H](C)CC)NC(=O)[C@H](CO)NC(=O)[C@H](CCCCN)NC(=O)[C@H]([C@@H](C)O)NC(=O)[C@H](Cc2ccc(O)cc2)NC(=O)[C@H](CCCNC(=N)N)NC(=O)CNC(=O)[C@@H](N)CSSC[C@@H](C(=O)N[C@@H](Cc2ccccc2)C(=O)O)NC1=O [BT53] (H-CGRYTKSIPPICF-OH; disulfide 1-12; C-terminus assumed) | 104.2 ± 0.5% | 108.9 ± 2.0% | 106.0 ± 0.4% | 87.4 ± 4.9% | 63.0 ± 1.9% | 0.5 ± 0.2% | 0.2 ± 0.0% | – | – | 0.0 ± 0.1% | good inhibitory activities against trypsin | pIC50: 6.92; pKi: 7.52; inhibitory activity against trypsin (in words) (listed as SEQ ID NO: 53): excellent trypsin inhibitory activities; Residual trypsin activity (peptide 0.0585 μM): 84.9 ± 2.2%; Residual trypsin activity (peptide 0.07317 μM): 75.2 ± 2.8% |
